Measurements: patent US12296027B2, “Molecular renal probes for detecting acute kidney injury” (Nanyang Technological University, priority 2019, dated 2025)
Like-named read-outs stand apart in the source and are kept apart here. Each block holds one compound with its values, some of them ahead of it.

Columns and labels:
[1] = Body weight of drug-treated mice; type: in vivo; details: BALB/c mice, single i.v. dose
Procedure: Mice were randomly selected and treated with cisplatin (5 mg kg^−1, 10 mg kg^−1 or 20 mg kg^−1 body weight, i.p. injection), gentamicin (100 mg kg^−1 day^−1, i.p. injection) or diatrizoate (1000 mg kg^−1 body weight, i.v injection, water deprivation for 24 h before treatment). The control groups were treated with saline (0.2 ml) or NAC (400 mg kg^−1 body weight, i.v injection) 30 min prior to cisplatin administration^50. Body weights of all the mice were recorded during treatment. After drug administration, the weight of mice and signs of discomfort were monitored on a daily basis during the entire experiments (FIG. 46). Imaging, blood and urine sampling were conducted at different timepoints post-treatment of drug. At the end, mice were euthanized and major organs were placed into 4% paraformaldehyde for histological examination.
For the doxorubicin model, dose-finding studies were first carried out to define an optimal dose of 10 mg kg^−1 body weight of doxorubicin. […] The corresponding MRP (40 mg kg^−1) was systematically injected through the tail vein at t=0, 2 d, 5 d, and 8 d post-treatment of DOX, and fluorescence images were acquired. […] Fluorescence images of living mice and urine samples were acquired for 0.1 s with excitation at 675±20 nm, and emission at 720±20 nm. Fluorescence images were analysed by ROI analysis using the Living Image 4.0 Software.

[2] = cited from earlier work
[3] = in DMSO; cited from earlier work
[4] = Commercial assays of serum and urinary kidney injury biomarkers in drug-treated mice; type: in vivo
Procedure: Urine was collected using metabolic cages from drug-treated mice at different timepoints post-treatment of drug. The collected urine samples were centrifuged at 4500 r.p.m. for 8 min and filtered by 0.22 μm syringe filter. MRPs1-3 solutions (30 μM) in PBS buffer (10 mM, pH 7.4) were incubated with the urine (100 μl) at 37° C., followed by fluorescence measurements on fluorescence spectrophotometer after 2 h incubation (9 mice were analysed for each sample). Urinary TFF3, osteopontin, NGAL, β2-Microglobulin, KIM-1, clusterin levels were quantified using ELISA kits according to the manufacturer's protocol (6 mice were analysed for each sample).
Blood was collected from the tail vein in living NCr nude mice under isoflurane anesthesia at t=8, 12, 16, 24, or 48 h post-treatment of cisplatin (20 mg kg^−1 body weight), or at t=24, 48, 72, 96, or 144 h post-treatment of gentamicin (100 mg kg^−1 day^−1 body weight), or at t=2, 8, 16, 24, or 48 h post-treatment of diatrizoate (1000 mg kg^−1 body weight), or saline (0.2 ml) treated mice. The collected blood samples were centrifuged for 20 min at 3500 r.p.m. Serum creatinine, BUN and cystatin C were determined using commercial kits according to the manufacturer's protocol (5 mice were analysed for each sample).
Blood was collected from the tail vein in living mice under isoflurane anesthesia at t=2, 8, 16, 24 or 48 h post-treatment of diatrizoate (1 g kg^−1 body weight), or PBS treated mice, or NAC/DTZ co-treated mice. The collected blood samples were centrifuged for 15 min at 4500 r.p.m. Serum creatinine and BUN were determined using commercial kits according to the manufacturer's protocol (3 mice were analysed for each sample).

[5] = Determination of GFR by FITC-inulin method in drug-treated mice; type: in vivo
Procedure: FITC-inulin (150 mg) was dissolved in 0.9% NaCl (3 ml) at 75° C. and dialysed in 0.9% NaCl (1000 ml) at room temperature for 24 h. Dialysed FITC-inulin (3.74 μl g^−1 […]), or at t=24, 36, 48, 96, or 144 h post-treatment of gentamicin (100 mg kg^−1 day^−1 body weight), or at t=2, 8, 16, 24, or 48 h post-treatment of diatrizoate (1000 mg kg^−1 body weight), or saline (0.2 ml) treated mice. Blood (approximately 20 μl) was collected via saphenous vein at 3, 7, 10, 15, 35, 55, and 75 min post-injection of FITC-inulin, and then centrifuged for 20 min at 3500 r.p.m. Serum sample (10 μl) was diluted with HEPES buffer (40 μl, 500 mM, pH 7.4) and fluorescence was measured using spectramax with excitation at 485 nm and emission at 538 nm. Serum fluorescence data were presented as a two-component exponential decay curve using nonlinear regression (3 mice were analysed for each sample). GFR was calculated according to the equation (Z. Qi, et al., Am. J. Physiol. Renal. Physiol. 2004, 286, F590-596): […], where I is the amount of FITC-inulin delivered by the bolus injection, A and B are the y-intercept values of the two decay rates, and α and β are the decay constants for the distribution and elimination phases, respectively.
FITC-inulin (150 mg) was dissolved in 0.9% NaCl (3 ml), heated at 75° C. and dialysed in 0.9% NaCl (1000 ml) at room temperature for 24 h. Dialysed FITC-inulin (3.74 μl g^−1 body weight) was i.v. injected into living mice at =2, 8, 16, 24, or 48 h post-treatment of diatrizoate (1 g kg^−1 body weight), or PBS (0.2 ml) treated mice, or NAC/DTZ co-treated mice. Blood (approximately 20 μl) was collected via tail vein at 3, 7, 10, 15, 35, 55, and 75 min post-injection of FITC-inulin, and then centrifuged for 15 min at 4500 r.p.m. Serum sample (10 μl) was diluted with PBS buffer (40 μl, 10 mM, pH 7.4) and fluorescence was measured using spectramax with excitation at 485 nm and emission at 538 nm. Serum fluorescence data were presented as a two-component exponential decay curve using nonlinear regression (3 mice were analysed for each sample). GFR was calculated according to the equation: […], where 1 is the amount of FITC-inulin delivered by the bolus injection, A and B are the y-intercept values of the two decay rates, and α and β are the decay constants for the distribution and elimination phases, respectively.

[6] = at first significant timepoint, initial studies
[7] = at first significant timepoint, subsequent studies

Compound: COc1cccc2c1C(=O)c1c(O)c3c(c(O)c1C2=O)C[C@@](O)(C(=O)CO)C[C@@H]3O[C@H]1C[C@H](N)[C@H](O)[C@H](C)O1 [DOX, doxorubicin]
- mean body weight gain by day 16 [1]: 3%
- mean body weight loss by day 8 [1]: approximately 6%

Compound: CNC(=O)CN(CCN(CCN(CC(=O)[O-])CC(=O)NC)CC(=O)[O-])CC(=O)[O-].[Gd+3] [Gd-DTPA-BMA]
- Renal clearance efficiency ([2]; in 24 h, S.D Rats): 95% in 24 h

Compound: CC1(C)C(/C=C/C=C/C=C/C=C2\N(CCCCS(=O)(=O)[O-])c3ccc4ccccc4c3C2(C)C)=[N+](CCCCS(=O)(=O)[O-])c2ccc3ccccc3c21.[Na+] [ICG]
- fluorescence quantum yield (ϕ) of standard [3]: 13%

Compound: CC(=O)N(CC(O)CO)c1c(I)c(C(=O)NCC(O)CO)c(I)c(C(=O)NCC(O)CO)c1I (stereo not drawn) [Iohexol]
- Renal clearance efficiency ([2]; in 4 h, S.D rats): 59.7% in 4 h

Compound: CNC(=O)c1c(I)c(NC(C)=O)c(I)c(C(=O)O)c1I [Iothalamate]
- Renal clearance efficiency ([2]; in 24 h, S.D rat): 93.5% ID in 24 h

Compound: N.N.[Cl][Pt][Cl] [cisplatin]
- time of first statistically significant change of urinary NGAL and trefoil factor-3 ([4]; mouse, in vivo): 48 h
- time of first statistically significant increase of urinary KIM-1 and clusterin ([4]; mouse, in vivo): 24 h
- time of increase of serum Cystatin C ([4]; mouse, in vivo): 48 h
- time of statistically significant change of urinary osteopontin ([4]; mouse, in vivo): 72 h
- time of statistically significant change of urinary β2-microglobulin ([4]; mouse, in vivo): 72 h
- time of statistically significant increase of sCr and BUN after treatment ([4]; mouse, in vivo): 72 h
- urinary KIM-1 increase ([4]; mouse, in vivo): 1.9 fold
- urinary NGAL change ([4]; mouse, in vivo): 2.7 fold
- urinary NGAL change, alternative value ([4]; mouse, in vivo): 2.72 fold
- urinary clusterin increase ([4]; mouse, in vivo): 4.1 fold
- urinary osteopontin change ([4]; mouse, in vivo): 2.3 fold
- urinary trefoil factor-3 change ([4]; mouse, in vivo): 0.4 fold
- urinary β2-microglobulin change ([4]; mouse, in vivo): 3.9 fold
- decrease in GFR at timepoint of sCr/BUN increase ([5]; mouse, in vivo): ~50%

- decrease in GFR at 24 h post-treatment ([5]; mouse, in vivo): ~40%
- decrease in GFR at 48 h post-treatment ([5]; mouse, in vivo): ~60%
- decrease in GFR at timepoint of sCr/BUN increase ([5]; mouse, in vivo): ~50%
Compound: CC(=O)Nc1c(I)c(NC(C)=O)c(I)c(C(=O)O)c1I [diatrizoate]
- BUN relative to control groups ([4]; mouse, in vivo): 1.8 fold
- sCr relative to control groups ([4]; mouse, in vivo): 1.7 fold
- time of first statistically significant change of urinary NGAL and trefoil factor-3 ([4]; mouse, in vivo): 24 h
- time of first statistically significant increase of urinary KIM-1 and clusterin ([4]; mouse, in vivo): 24 h
- time of statistically significant change of urinary osteopontin ([4]; mouse, in vivo): 24 h
- time of statistically significant change of urinary β2-microglobulin ([4]; mouse, in vivo): 48 h
- time of statistically significant increase of sCr and BUN after treatment ([4]; mouse, in vivo): 24 h
- urinary KIM-1 increase ([4]; mouse, in vivo): 3.7 fold
- urinary NGAL change ([4]; mouse, in vivo): 2.3 fold
- urinary NGAL change, alternative value ([4]; mouse, in vivo): 2.05 fold
- urinary clusterin increase ([4]; mouse, in vivo): 3.0 fold
- urinary osteopontin change ([4]; mouse, in vivo): 2.3 fold
- urinary trefoil factor-3 change ([4]; mouse, in vivo): 0.5 fold
- urinary β2-microglobulin change ([4]; mouse, in vivo): 3.6 fold

Compound: gentamicin
- urinary KIM-1 increase ([4]; at first significant timepoint): 2.2 fold
- urinary NGAL change ([4]; at first significant timepoint): 2.0 fold
- urinary NGAL change, alternative value ([4]; at first significant timepoint): 1.98 fold
- urinary clusterin increase ([4]; at first significant timepoint): 3.5 fold
- urinary osteopontin change ([4]; at first significant timepoint): 2.3 fold
- urinary trefoil factor-3 change ([4]; at first significant timepoint): 0.3 fold
- urinary β2-microglobulin change ([4]; at first significant timepoint): 3.2 fold
- BUN increase [4, 6]: 2.23 fold
- sCr increase [4, 6]: 2.82 fold
- BUN increase [4, 7]: 2.4 fold
- sCr increase [4, 7]: 2.9 fold
- time of first statistically significant change of urinary NGAL and trefoil factor-3 ([4]; mouse, in vivo): 96 h
- time of first statistically significant increase of urinary KIM-1 and clusterin ([4]; mouse, in vivo): 72 h
- time of statistically significant change of urinary osteopontin ([4]; mouse, in vivo): 144 h
- time of statistically significant change of urinary β2-microglobulin ([4]; mouse, in vivo): 144 h
- time of statistically significant increase of sCr and BUN after treatment ([4]; nephrotoxic dose, mice): 144 h
- decrease in GFR at timepoint of sCr/BUN increase ([5]; 72 h cisplatin, 144 h gentamicin, 24 h diatrizoate): ~50%
